In patent publication US20140005163A1 (NOVARTIS AG, priority 2010, published 2014):
In brackets after ≈: the same amount, converted by molar mass. Like-named read-outs stand apart in the source and are kept apart here.

Legend:
[1] = biological target: T1, mTOR (Homo sapiens, UniProt P42345); test: Biochemical assay for m-TOR by TR-FRET; settings: 8 μM ATP, 400 nM GFP-4EBP1, 0.5 nM mTOR
T1 construct: purchased Invitrogen Corporation (Carlsbad/CA, USA) PV4753
In short: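 TR-FRET read-out: Tb-labelled anti-p4EBP1 pThr46 antibody (0.5 nM), added in EDTA to stop the reaction, detects phosphorylated GFP-4EBP1 after 15 min. Kinase step used 0.5 nM mTOR, 400 nM substrate, 8 μM ATP, MnCl2-containing HEPES buffer pH 7.5, room temperature.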

[2] = tested on: PKB Ser473 phosphorylation in Rat1-myr-HA-p110 delta cells; test: Reverse protein array assay, PKB Ser473 phosphorylation in Rat1-myr-p110 delta cells; format: cell-based; settings: read-out: p-PKB IC50
In short: (§1)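 After at least 20 h of culture, the p110 isoform-transfected Rat1 lines receive compound in an 8-step dilution series, keeping DMSO at 0.2%, for 30 minutes. Cells are then lysed and lysates arrayed on chips for fluorescence detection of Ser473-phosphorylated PKB.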

[3] = Solubility at pH 6.8; format: physicochemical
Source text: The physicochemical properties of relevance for the absorption of the compound, such as the solubility and the membrane permeability, especially at a pH close to neutral pH can be measured using the procedure as described by L. ZHOU et al. in JOURNAL OF PHARMACEUTICAL SCIENCES, VOL. 96, NO. 11, p. 3052-3071 (2007) for the solubility at pH 6.8 and the procedure as described by F. Wohnsland and B. Faller in Journal of Medicinal Chemistry Vol 44, p. 923-930 (2001) for the Parallel Artificial Membrane Permeability Assay (PAMPA) at pH 6.8.

[4] = biological target: T2, PI3K alpha (Homo sapiens, UniProt P42336); test: PI3K alpha kinase assay (Kinase-Glo luminescence); format: biochemical
T2 construct: p85(iSH2) fusion partner (see partner chain) (N); His tag (C); made in house; host or cells: baculovirus; Tn5 (Trichoplusia ni) or TiniPro insect cells
In short: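 Read-out: Kinase-Glo luminescence of ATP left after 60 min at room temperature. Conditions: 10 nM PI3Kα (EMV B1075), 1 μM ATP, 10 μg/mL PI substrate, Tris pH 7.5 buffer with MgCl2, NaCl, CHAPS and DTT. IC50s fitted with a four-parameter logistic model.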

[5] = tested on: PKB Ser473 phosphorylation in Rat1-myr-HA-p110 alpha cells; test: Reverse protein array assay, PKB Ser473 phosphorylation in Rat1-myr-p110 alpha cells; format: cell-based; settings: 0.5 h, pAkt Ser473, 30 minutes compound incubation, read-out: p-PKB IC50
In short: as §1

[6] = tested on: PKB Ser473 phosphorylation in Rat1-myr-HA-p110 beta cells; test: Reverse protein array assay, PKB Ser473 phosphorylation in Rat1-myr-p110 beta cells; format: cell-based; settings: 0.5 h, pAkt Ser473, 30 minutes incubation, read-out: p-PKB IC50
In short: as §1

[7] = biological target: T3, PI3K delta (Homo sapiens, UniProt O00329); test: PI3K delta kinase assay (Kinase-Glo luminescence); format: biochemical
T3 construct: for the full-length p110-d subunit are generated and fused by overlapping PCR; p85(iSH2) fusion partner (see partner chain) (N); His tag (C); made in house; host or cells: baculovirus; Tn5 (Trichoplusia ni) or TiniPro insect cells
In short: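 Kinase-Glo luminescence read-out of ATP remaining after 60 min at RT. Enzyme: 10 nM BV1060 (p85 iSH2–p110δ fusion, His-tagged); substrate 10 μg/mL PI, ATP 1 μM final; Tris pH 7.5 buffer with MgCl2, NaCl, CHAPS, DTT. IC50 from 4-parameter logistic fit over 8 concentrations.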

[8] = tested on: S6 Ribosomal Protein phosphorylation Ser235/236 in TSC1 null mouse embryo fibroblast (MEF) cells; test: Reverse protein array assay, S6 Ribosomal Protein phosphorylation Ser235/236 in TSC1 null MEF cells; format: cell-based; settings: 1 h, pS6 ribosomal protein Ser235/236, 60 minutes incubation, read-out: p-S6 IC50
In short: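 TSC1−/− MEFs, seeded and held ≥20 h at 37 °C/5% CO2, were exposed to 8-step serial compound dilutions (0.02% DMSO final; DMSO vehicle control) for 60 min at 37 °C. Cells were then lysed on ice for 10 min and lysates spotted onto reverse protein array chips.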

[9] = pH 6.8, aqueous buffer, thermodynamic from solid, read-out: solubility

T3 sequence (O00329 with tags, fused parts or gaps limits assumed): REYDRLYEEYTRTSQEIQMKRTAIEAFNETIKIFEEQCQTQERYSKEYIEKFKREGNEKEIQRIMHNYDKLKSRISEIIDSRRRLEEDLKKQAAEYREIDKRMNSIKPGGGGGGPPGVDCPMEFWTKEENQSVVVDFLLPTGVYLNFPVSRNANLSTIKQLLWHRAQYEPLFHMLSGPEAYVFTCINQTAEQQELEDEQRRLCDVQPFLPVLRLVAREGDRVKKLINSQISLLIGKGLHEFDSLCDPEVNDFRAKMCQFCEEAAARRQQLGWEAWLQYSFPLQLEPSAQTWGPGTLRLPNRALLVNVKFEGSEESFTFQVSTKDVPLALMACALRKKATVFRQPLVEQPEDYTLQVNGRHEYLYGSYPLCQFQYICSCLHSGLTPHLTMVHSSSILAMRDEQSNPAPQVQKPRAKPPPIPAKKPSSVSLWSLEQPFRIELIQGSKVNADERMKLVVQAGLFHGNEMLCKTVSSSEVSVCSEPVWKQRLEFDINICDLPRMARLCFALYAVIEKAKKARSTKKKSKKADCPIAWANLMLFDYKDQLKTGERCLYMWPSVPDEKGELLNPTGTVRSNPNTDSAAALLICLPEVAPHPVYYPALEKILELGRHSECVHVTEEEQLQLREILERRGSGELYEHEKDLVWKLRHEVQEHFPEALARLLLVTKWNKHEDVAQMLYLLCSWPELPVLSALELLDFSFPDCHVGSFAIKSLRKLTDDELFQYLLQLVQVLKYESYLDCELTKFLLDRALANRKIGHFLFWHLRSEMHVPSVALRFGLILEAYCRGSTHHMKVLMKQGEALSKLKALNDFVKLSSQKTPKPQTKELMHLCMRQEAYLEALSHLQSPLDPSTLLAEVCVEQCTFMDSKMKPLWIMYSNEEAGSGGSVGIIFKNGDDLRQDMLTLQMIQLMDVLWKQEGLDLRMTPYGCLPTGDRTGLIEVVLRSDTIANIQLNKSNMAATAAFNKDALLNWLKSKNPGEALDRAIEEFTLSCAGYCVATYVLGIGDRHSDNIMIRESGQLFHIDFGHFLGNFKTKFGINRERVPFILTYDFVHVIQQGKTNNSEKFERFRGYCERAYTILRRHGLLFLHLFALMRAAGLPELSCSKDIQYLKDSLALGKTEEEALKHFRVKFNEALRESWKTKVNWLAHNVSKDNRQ
T1 sequence (P42345 1360-2549 limits assumed): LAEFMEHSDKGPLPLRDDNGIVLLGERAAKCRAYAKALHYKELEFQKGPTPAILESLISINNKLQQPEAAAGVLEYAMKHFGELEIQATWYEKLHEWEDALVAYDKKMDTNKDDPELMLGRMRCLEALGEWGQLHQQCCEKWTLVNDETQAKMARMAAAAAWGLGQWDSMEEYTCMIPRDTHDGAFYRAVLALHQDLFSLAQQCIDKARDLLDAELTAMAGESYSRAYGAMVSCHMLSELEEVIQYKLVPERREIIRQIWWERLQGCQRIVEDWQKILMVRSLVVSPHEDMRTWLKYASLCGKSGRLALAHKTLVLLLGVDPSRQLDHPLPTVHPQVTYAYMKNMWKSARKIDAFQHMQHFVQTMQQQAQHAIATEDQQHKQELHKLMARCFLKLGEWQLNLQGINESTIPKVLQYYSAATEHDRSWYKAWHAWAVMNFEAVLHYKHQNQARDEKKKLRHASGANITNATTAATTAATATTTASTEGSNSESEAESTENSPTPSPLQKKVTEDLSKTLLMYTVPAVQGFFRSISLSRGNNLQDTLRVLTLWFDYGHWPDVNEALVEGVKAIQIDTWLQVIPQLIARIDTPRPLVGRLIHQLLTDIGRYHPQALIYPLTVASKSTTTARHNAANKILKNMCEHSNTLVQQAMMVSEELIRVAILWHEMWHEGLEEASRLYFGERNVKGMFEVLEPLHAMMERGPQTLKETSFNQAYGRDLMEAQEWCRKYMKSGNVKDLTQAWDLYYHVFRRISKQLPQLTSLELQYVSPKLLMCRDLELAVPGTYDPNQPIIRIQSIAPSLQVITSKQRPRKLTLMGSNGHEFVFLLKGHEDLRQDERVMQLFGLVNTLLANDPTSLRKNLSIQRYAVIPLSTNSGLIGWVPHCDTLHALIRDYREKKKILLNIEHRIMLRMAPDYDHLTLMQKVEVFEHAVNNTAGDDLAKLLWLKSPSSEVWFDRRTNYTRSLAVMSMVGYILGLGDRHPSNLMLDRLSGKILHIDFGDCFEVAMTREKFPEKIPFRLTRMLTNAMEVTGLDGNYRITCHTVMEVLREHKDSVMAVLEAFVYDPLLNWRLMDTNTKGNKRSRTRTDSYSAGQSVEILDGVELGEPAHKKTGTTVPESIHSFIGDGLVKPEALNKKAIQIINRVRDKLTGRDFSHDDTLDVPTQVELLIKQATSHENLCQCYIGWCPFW
T2 sequence (P42336 with tags, fused parts or gaps limits assumed): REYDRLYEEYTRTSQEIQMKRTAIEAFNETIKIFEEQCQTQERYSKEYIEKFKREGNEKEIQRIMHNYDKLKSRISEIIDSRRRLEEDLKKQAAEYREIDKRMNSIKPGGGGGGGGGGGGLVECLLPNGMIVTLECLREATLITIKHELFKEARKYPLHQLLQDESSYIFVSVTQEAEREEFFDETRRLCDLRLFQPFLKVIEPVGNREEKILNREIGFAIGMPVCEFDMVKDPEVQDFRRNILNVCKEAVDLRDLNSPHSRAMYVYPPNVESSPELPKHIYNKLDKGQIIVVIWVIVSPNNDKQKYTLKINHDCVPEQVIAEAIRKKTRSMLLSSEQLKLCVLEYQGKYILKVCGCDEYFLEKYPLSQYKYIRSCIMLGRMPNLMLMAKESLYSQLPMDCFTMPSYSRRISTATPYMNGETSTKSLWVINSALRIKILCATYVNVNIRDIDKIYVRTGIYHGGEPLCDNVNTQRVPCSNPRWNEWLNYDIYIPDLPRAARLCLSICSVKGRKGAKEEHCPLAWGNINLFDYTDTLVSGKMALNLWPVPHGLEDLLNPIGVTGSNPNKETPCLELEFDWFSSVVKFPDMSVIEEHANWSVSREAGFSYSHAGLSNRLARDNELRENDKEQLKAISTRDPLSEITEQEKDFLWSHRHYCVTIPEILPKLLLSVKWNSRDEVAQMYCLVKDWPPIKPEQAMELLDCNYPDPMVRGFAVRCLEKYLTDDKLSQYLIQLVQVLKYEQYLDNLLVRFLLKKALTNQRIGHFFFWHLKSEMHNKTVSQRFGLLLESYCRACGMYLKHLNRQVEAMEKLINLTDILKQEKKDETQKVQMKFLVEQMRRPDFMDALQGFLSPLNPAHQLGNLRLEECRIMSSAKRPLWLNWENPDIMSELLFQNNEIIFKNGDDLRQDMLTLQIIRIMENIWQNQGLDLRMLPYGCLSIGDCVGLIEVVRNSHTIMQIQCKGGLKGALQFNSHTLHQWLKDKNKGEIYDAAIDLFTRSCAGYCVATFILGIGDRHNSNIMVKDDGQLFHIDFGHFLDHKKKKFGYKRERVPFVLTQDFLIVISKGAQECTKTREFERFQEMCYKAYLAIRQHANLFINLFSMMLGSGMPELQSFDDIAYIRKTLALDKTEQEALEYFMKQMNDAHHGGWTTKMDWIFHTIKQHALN

Structure (SMILES) | IC50 [1] [nM] | IC50 [2] [nM] | solubility [3, 9] [µg/mL] | IC50 [4] [nM] | IC50 [5] [nM] | IC50 [6] [nM] | IC50 [7] [nM] | solubility ([3]; pH 6.8) [µg/mL] | IC50 [8] [nM]
CN(C)c1ccc(-c2ccc3ncc4c(c3c2)n(-c2ccnn2C)c(=O)n4C)cn1 [Example 4.7, 8-(6-Dimethylamino-pyridin-3-yl)-3-methyl-1-(2-methyl-2H-pyrazol-3-yl)-1,3-dihydro-imidazo[4,5-c]quinolin-2-one] | 505 | 547 | 3 (≈ 7.51 µM) | 461 | 134 | 121 |  |  | 
Cn1nccc1-n1c(=O)n(C)c2cnc3ccc(-c4ccc(C(F)(F)F)nc4)cc3c21 [Example 8.1, 3-Methyl-1-(2-methyl-2H-pyrazol-3-yl)-8-(6-trifluoromethyl-pyridin-3-yl)-1,3-dihydro-imidazo[4,5-c]quinolin-2-one] | 734 |  | 18 (≈ 42.4 µM) | 210 | 589 |  | 167 |  | 
Cc1cc(-n2c(=O)n(C)c3cnc4ccc(-c5cccnc5F)cc4c32)n(C)n1 [Example 9, 1-(2,5-Dimethyl-2H-pyrazol-3-yl)-8-(2-fluoro-pyridin-3-yl)-3-methyl-1,3-dihydro-imidazo[4,5-c]quinolin-2-one] | 383 |  | 9 (≈ 23.2 µM) | 246 |  |  | 737 |  | 
Cc1nn(CC(=O)N(C)C)c(C)c1-n1c(=O)n(C)c2cnc3ccc(-c4ccccc4)cc3c21 [Example 37.4, 2-[3,5-Dimethyl-4-(3-methyl-2-oxo-8-phenyl-2,3-dihydro-imidazo[4,5-c]quinolin-1-yl)-pyrazol-1-yl]-N,N-dimethyl-acetamide] |  |  | 37 (≈ 81.4 µM) | 266 |  |  |  |  | 844
COCCn1nc(C)c(-n2c(=O)n(C)c3cnc4ccc(-c5ccc(-n6cccn6)cc5)cc4c32)c1C [Example 51.5] |  | 516 | 14 (≈ 28.4 µM) | 110 | 17 |  | 362 |  | 25
Cc1nn(C)cc1-n1c(=O)n(C)c2cnc3ccc(-c4cnc5c(c4)n(C)c(=O)n5C)cc3c21 [Example 67, 8-(1,3-Dimethyl-2-oxo-2,3-dihydro-1H-imidazo[4,5-b]pyridin-6-yl)-1-(1,3-dimethyl-1H-pyrazol-4-yl)-3-methyl-1,3-dihydro-imidazo[4,5-c]quinolin-2-one] |  | 298 |  |  | 166 | 171 |  | 2 (≈ 4.4 µM) | 
Cc1nn(C)cc1-n1c(=O)n(C)c2cnc3ccc(-c4cnc5c(c4)nc(C)n5C)cc3c21 [Example 73, 8-(2,3-Dimethyl-3H-imidazo[4,5-b]pyridin-6-yl)-1-(1,3-dimethyl-1H-pyrazol-4-yl)-3-methyl-1,3-dihydro-imidazo[4,5-c]quinolin-2-one] | 160 | 530 | 41 (≈ 93.5 µM) | 173 | 337 | 417 | 372 |  | 
CCN(C)c1ccc(-c2ccc3ncc4c(c3c2)n(-c2cn(C(C)C)nc2C)c(=O)n4C)cn1 [Example 98.2, 8-[6-(Ethyl-methyl-amino)-pyridin-3-yl]-1-(1-isopropyl-3-methyl-1H-pyrazol-4-yl)-3-methyl-1,3-dihydro-imidazo[4,5-c]quinolin-2-one] | 30 | 59 | 75 (≈ 165 µM) | 118 | 10 | 18 | 101 |  | 
CCN(C)c1ccc(-c2ccc3ncc4c(c3c2)n(-c2cn(CC)nc2C)c(=O)n4C)cn1 [Example 98.3, 8-[6-(Ethyl-methyl-amino)-pyridin-3-yl]-1-(1-ethyl-3-methyl-1H-pyrazol-4-yl)-3-methyl-1,3-dihydro-imidazo[4,5-c]quinolin-2-one] | 22 | 43 | 10 (≈ 22.6 µM) | 55 | 12 | 16 | 72 |  | 
Cc1nn(C)cc1-n1c(=O)n(C)c2cnc3ccc(-c4cnn(CCO)c4)cc3c21 [Example 106, 1-(1,3-Dimethyl-1H-pyrazol-4-yl)-8-[1-(2-hydroxy-ethyl)-1H-pyrazol-4-yl]-3-methyl-1,3-dihydro-imidazo[4,5-c]quinolin-2-one] | 672 |  | > 403 | 154 |  |  | 147 |  | 
Cc1nn(C)cc1-n1c(=O)n(C)c2cnc3ccc(-c4ccccn4)cc3c21 [Example 114, 1-(1,3-Dimethyl-1H-pyrazol-4-yl)-3-methyl-8-pyridin-2-yl-1,3-dihydro-imidazo[4,5-c]quinolin-2-one] |  |  | 61 (≈ 165 µM) |  | 303 | 725 |  |  | 
Cc1nn(C)cc1-n1c(=O)n(C)c2cnc3ccc(-c4ccnc(N(C)C(C)C)c4)cc3c21 [Example 130, 1-(1,3-Dimethyl-1H-pyrazol-4-yl)-8-[2-(isopropyl-methyl-amino)-pyridin-4-yl]-3-methyl-1,3-dihydro-imidazo[4,5-c]quinolin-2-one] | 494 |  | 74 (≈ 168 µM) | 785 | 330 |  | 386 |  | 

Now from value to compound, other results behind:

IC50 [1] [nM] | IC50 [2] [nM] | solubility [3, 9] [µg/mL] | IC50 [4] [nM] | IC50 [5] [nM] | IC50 [6] [nM] | IC50 [7] [nM] | solubility ([3]; pH 6.8) [µg/mL] | Structure (SMILES) | IC50 [8] [nM]
13 |  | 72 (≈ 137 µM) | 938 |  |  | 932 |  | CCOc1ccc(-c2ccc3ncc4[nH]c(=O)n(-c5cn(CC(=O)N6CCN(C)CC6)nc5C)c4c3c2)cn1 [Example 133, 8-(6-Ethoxy-pyridin-3-yl)-1-{3-methyl-1-[2-(4-methyl-piperazin-1-yl)-2-oxo-ethyl]-1H-pyrazol-4-yl}-1,3-dihydro-imidazo[4,5-c]quinolin-2-one] | 508
 | 62 |  |  | 29 | 36 |  | 2 (≈ 4.54 µM) | Cc1nn(C)cc1-n1c(=O)n(C)c2cnc3ccc(-c4cnc(N5CCCC5)nc4)cc3c21 [Example 140.2, 1-(1,3-Dimethyl-1H-pyrazol-4-yl)-3-methyl-8-(2-pyrrolidin-1-yl-pyrimidin-5-yl)-1,3-dihydro-imidazo[4,5-c]quinolin-2-one] | 6
92 |  | 43 (≈ 94.4 µM) | 215 | 115 | 185 | 647 |  | Cc1nn(C)cc1-n1c(=O)n(C)c2cnc3ccc(-c4ccc(N5CC[C@H](O)C5)nc4)cc3c21 [Example 212.2, 1-(1,3-Dimethyl-1H-pyrazol-4-yl)-8-[6-((S)-3-hydroxy-pyrrolidin-1-yl)-pyridin-3-yl]-3-methyl-1,3-dihydro-imidazo[4,5-c]quinolin-2-one] | 
542 |  | 413 (≈ 935 µM) | 405 |  |  |  |  | CC(=O)NCc1cncc(-c2ccc3ncc4c(c3c2)n(-c2cn(C)nc2C)c(=O)n4C)c1 [Example 231, N-{5-[1-(1,3-Dimethyl-1H-pyrazol-4-yl)-3-methyl-2-oxo-2,3-dihydro-1H-imidazo[4,5-c]quinolin-8-yl]-pyridin-3-ylmethyl}-acetamide] | 
 | 895 | > 485 |  | 371 | 995 |  |  | CCNC(=O)c1cc(-c2ccc3ncc4c(c3c2)n(-c2c(C)nn(C)c2C)c(=O)n4C)cnc1NC [Example 242.2, N-Ethyl-2-methylamino-5-[3-methyl-2-oxo-1-(1,3,5-trimethyl-1H-pyrazol-4-yl)-2,3-dihydro-1H-imidazo[4,5-c]quinolin-8-yl]-nicotinamide] | 88
